Literature values in patent publication US6703045B2, “Composition and method for maintaining blood glucose level” (Council of Scientific & Industrial Research, priority 2001, dated 2004).

[1] = approximate incidence in patients

## Cc1cnc(C(=O)NCCc2ccc(S(=O)(=O)NC(=O)NC3CCCCC3)cc2)cn1 [Glipizide, 1-cyclohexyl-3-[[p-[2-(5-methylpyrazinecarboxamido)ethyl]phenyl]sulfonyl] urea]
[1]
  incidence of constipation and gastralgia: one in one hundred
  incidence of nausea and diarrhea: one in seventy
patients
  incidence of dizziness, drowsiness, and headache (each): about one in fifty
